Non-standard residues stand in square brackets, D forms with d. No end group written: not given here. *: point of attachment. Myristoyl = CCCCCCCCCCCCCC(=O)*; Ac6c = NC1(C(=O)O)CCCCC1; Nle = CCCC[C@H](N)C(=O)O; Orn = NCCC[C@H](N)C(=O)O; Ac5c = NC1(C(=O)O)CCCC1; Aib = CC(C)(N)C(=O)O

Results on 10 compounds are retold here after patent publication US9072703B2 (Ipsen Pharma S.A.S., priority 2008, dated 2015).

Data set [1] is described as follows: Rat plasma half-life assay. In kind it is in vitro ADME. Conditions: 37° C., LC-MS, read-out: Rat Plasma T½ (converted). Here is the method:
(§1) B. Human and Rat Plasma Half-Life Assay
(§2) 50 μL was removed at various times, like at 0, 1, 2, 3, 4, 8, 24, 32, 48, 56, 72 hours, mixed with 5 μL formic acid and 150 μL acetonitrile in a microcentrifuge tube, vertexed, and centrifuged for 10 minutes at 10K rpm. The supernatant was transferred to an injection vial and analyzed by LC-MS. The LC-MS system consisted of an API4000 mass spectrometer with an ESI probe. Positive ion mode and full scan detection were used. HPLC separation was carried out on a Luna 3μ C8 (2), 2×30 mm column with a gradient from 90% A to 90% B in 10 minutes at a flow rate of 0.3 ml/min. Buffer A was 1% formic acid in water and buffer B was 1% formic acid acetonitrile.

Data set [2] can be described thus: Human plasma half-life assay. Format: in vitro ADME. Conditions: 37° C., LC-MS, read-out: Human Plasma T½ (converted). Here is the method:
as §1, §2

In a further data set the test system is Sprague Dawley rats. Kind of data set: Determination of in vivo insulin secretion in normal rats. On the set-up: species or system rat. The method, then:
D. Determination of In Vivo Insulin Secretion in Normal Rats
Male Sprague Dawley rats with a body weight of approximately 275-300 g were used as experimental subjects. The day prior to the treatment, right atrial cannulae were implanted via the jugular vein under chlorohydrate. Each cannula was filled with 100 u/ml heparin saline and tied. The rats were fasted for approximately 18 hours prior to dosing with the compound or the vehicle (saline/0.25% BSA). The day of the experiment, aliquots of compound were thawed, brought to room temperature and vortexed thoroughly. A careful check was made for any sign of compound coming out of solution. 10 minutes prior to compound/glucose injection, a 500 μl blood sample was withdrawn and replaced with an equal volume of heparinized saline (10 u/ml). At time 0, a 500 μl blood sample was withdrawn through the cannula. Next, either the vehicle or the appropriate dose of the compound was injected into the cannula and pushed in with the glucose (1 g/kg) or vehicle solution. Finally, 500 μl of volume of heparinized saline (10 u/ml) was used to push in the remaining glucose through the cannula. Additional 500 μl blood samples were withdrawn at 2.5, 5, 10, and 20-minute post-glucose dosing; each immediately followed by a bolus, iv injection of 500 μl heparinized saline (10 u/ml) through the cannula. The plasma was collected from the blood samples by centrifugation, and stored at −20° C. until assay for insulin content.
The in vivo effect of the compound of Example 20 was determined in a separate test under the identical experimental conditions as described above, and numerical values of the total insulin secretion for the compound of Example 20 are summarized in Table 4.

In data set [3] the target is T1, human recombinant GIP receptor (Homo sapiens, UniProt P48546).
T1 construct: expressed in transfected cells; host or cells: CHO-K1 clonal cells (membrane preparation)
T1 sequence (P48546 22-466): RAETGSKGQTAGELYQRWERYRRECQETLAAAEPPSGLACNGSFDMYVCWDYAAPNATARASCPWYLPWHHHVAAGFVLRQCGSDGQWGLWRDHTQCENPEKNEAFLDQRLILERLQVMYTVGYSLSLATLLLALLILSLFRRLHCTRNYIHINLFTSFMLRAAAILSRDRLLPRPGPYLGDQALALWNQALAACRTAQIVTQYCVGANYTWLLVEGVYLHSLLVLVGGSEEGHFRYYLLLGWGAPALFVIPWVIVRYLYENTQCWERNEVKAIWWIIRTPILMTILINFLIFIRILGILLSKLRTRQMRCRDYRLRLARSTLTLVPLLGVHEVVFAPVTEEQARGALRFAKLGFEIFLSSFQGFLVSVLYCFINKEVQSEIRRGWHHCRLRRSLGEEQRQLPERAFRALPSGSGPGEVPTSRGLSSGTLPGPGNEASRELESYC
Kind of data set: In vitro hGIP receptor binding assay. The method, then:
The final assay volume was 0.5 ml. The incubations were terminated by rapid filtration through GF/C filters (pre-soaked in 0.5% polyethylenimine) using a Brandel filtration manifold. Each tube and filter were then washed three times with 5-ml aliquots of ice-cold buffer.

The mark [4] stands for this setting: Table 3, fasted male Sprague Dawley rats, compound by cannula with glucose 1 g/kg, blood samples to 20 min.

`CC[C@H](C)[C@H](NC(=O)[C@H](CCCCN)NC(=O)[C@H](CC(=O)O)NC(=O)[C@H](CCSC)NC(=O)[C@H](C)NC(=O)[C@@H](NC(=O)C1(NC(=O)[C@H](Cc2ccc(O)cc2)NC(=O)[C@H](CC(=O)O)NC(=O)[C@H](CO)NC(=O)[C@@H](NC(=O)[C@H](Cc2ccccc2)NC(=O)[C@@H](NC(=O)CNC(=O)[C@H](CCC(=O)O)NC(=O)[C@H](C)NC(=O)[C@@H](N)Cc2ccc(O)cc2)[C@@H](C)O)[C@@H](C)CC)CCCC1)[C@@H](C)CC)C(=O)N[C@@H](Cc1c[nH]cn1)C(=O)N[C@@H](CCC(N)=O)C(=O)N[C@@H](CCC(N)=O)C(=O)N[C@@H](CC(=O)O)C(=O)N[C@@H](Cc1ccccc1)C(=O)N[C@H](C(=O)N[C@@H](CC(N)=O)C(=O)N[C@@H](Cc1c[nH]c2ccccc12)C(=O)N[C@@H](CC(C)C)C(=O)N[C@@H](CC(C)C)C(=O)N[C@@H](C)C(=O)N[C@@H](CCC(N)=O)C(=O)N[C@@H](CCCCN)C(=O)NCC(=O)N[C@@H](CCCCN)C(=O)N[C@@H](CCCCN)C(=O)N[C@@H](CC(N)=O)C(=O)N[C@@H](CC(=O)O)C(=O)N[C@@H](Cc1c[nH]c2ccccc12)C(=O)N[C@@H](CCCCN)C(=O)N[C@@H](Cc1c[nH]cn1)C(=O)N[C@@H](CC(N)=O)C(=O)N[C@H](C(=O)N[C@H](C(=O)N[C@@H](CCC(N)=O)C(=O)N[C@@H](Cc1c[nH]cn1)C(=O)O)[C@@H](C)O)[C@@H](C)CC)C(C)C` [Example 3, (A5c^11, His^43)hGIP(1-43)-OH]: the figures for the half-life at 0.1 mg/ml in data set [1] and in data set [2] were 1.9 h and 7 h, respectively. For the same compound, the “AUC (total insulin secretion)” value with Sprague Dawley rats (setting [4]) is listed as 269.83.
For the compound `CC[C@H](C)[C@H](NC(=O)[C@H](CCCCN)NC(=O)[C@H](CC(=O)O)NC(=O)C1(NC(=O)[C@H](C)NC(=O)[C@@H](NC(=O)C2(NC(=O)[C@H](Cc3ccc(O)cc3)NC(=O)[C@H](CC(=O)O)NC(=O)[C@H](CO)NC(=O)[C@@H](NC(=O)[C@H](Cc3ccccc3)NC(=O)[C@@H](NC(=O)CNC(=O)[C@H](CCC(=O)O)NC(=O)[C@H](C)NC(=O)[C@@H](N)Cc3ccc(O)cc3)[C@@H](C)O)[C@@H](C)CC)CCCC2)[C@@H](C)CC)CCCC1)C(=O)N[C@@H](Cc1c[nH]cn1)C(=O)N[C@@H](CCC(N)=O)C(=O)N[C@@H](CCC(N)=O)C(=O)N[C@@H](CC(=O)O)C(=O)N[C@@H](Cc1ccccc1)C(=O)N[C@H](C(=O)N[C@@H](CC(N)=O)C(=O)N[C@@H](Cc1c[nH]c2ccccc12)C(=O)N[C@@H](CC(C)C)C(=O)N[C@@H](CC(C)C)C(=O)N[C@@H](C)C(=O)N[C@@H](CCC(N)=O)C(=O)N[C@@H](CCCCN)C(=O)NCC(=O)N[C@@H](CCCCN)C(=O)N[C@@H](CCCCN)C(=O)N[C@@H](CC(N)=O)C(=O)N[C@@H](CC(=O)O)C(=O)N[C@@H](Cc1c[nH]c2ccccc12)C(=O)N[C@@H](CCCCN)C(=O)N[C@@H](Cc1c[nH]cn1)C(=O)N[C@@H](CC(N)=O)C(=O)N[C@H](C(=O)N[C@H](C(=O)N[C@@H](CCC(N)=O)C(=O)N[C@@H](Cc1c[nH]cn1)C(=O)O)[C@@H](C)O)[C@@H](C)CC)C(C)C` [Example 20, (A5c^11, 14, His^43)hGIP(1-43)-OH], the half-life at 0.1 mg/ml was 4.9 h in data set [1] and 7.2 h in data set [2]. In the data set on Sprague Dawley rats (Table 4, separate test under identical experimental conditions), the “AUC (total insulin secretion)” value amounted to 149.39.
For the compound “Glucose-dependent insulinotropic polypeptide [GIP, reference compound]”, the “AUC (total insulin secretion)” value in the data set on Sprague Dawley rats (setting [4]) is 114.87.
With “YAEGTFISDYSI[Aib]MDKIHQQDFVNWLLAQKGKKNDWKHNITQD-NH2 [Example 5, (Aib^13, Asp^43)hGIP(1-43)-NH2]”, the half-life at 0.1 mg/ml in data set [1] is 1.3 h; in data set [2], 5.5 h. Also, in the data set with Sprague Dawley rats (setting [4]), the “AUC (total insulin secretion)” value turned out to be 196.17.
The like results for “YAEGTFISDYSI[Aib]MDKIHQQDFVNWLLAQKGKKNDWKHN[Ac5c]TQ-OH [Example 7, (Aib^13, A5c^40)hGIP(1-42)-OH]” were, in that order, 1.7 h, 7 h and 176.90.
On to “YAEGTFISDYSI[Aib][Nle]DKIHQQDFVNWLLAQKGKKNDWKHN[Ac5c]TQ-OH [Example 6, (Aib^13, Nle^14, A5c^40)hGIP(1-42)-OH]”, for which the values for the half-life at 0.1 mg/ml in data set [1] and in data set [2] were 1.9 h and 7.8 h, respectively. For the same compound, in the data set on Sprague Dawley rats (setting [4]), the “AUC (total insulin secretion)” value came to 180.31.
The like results for “YAEGTFISDY[Ac5c]IAMDKIHQQDFVNWLLAQKGKKNDWKHNITQN-OH [Example 4, (A5c^11, Asn^43)hGIP(1-43)-OH]” were, in that order, 4.1 h, 7.2 h and 265.11.
In the case of “YAEGTFISDY[Ac5c]IAMDKIHQQDFVNWLLAQKGKKNDWKHNI[Ac5c]Q-OH [Example 1, (A5c^11, 41)hGIP(1-42)-OH]”, the half-life at 0.1 mg/ml in data set [1] is 2.2 h; in data set [2], 11.4 h. In addition, in the data set with Sprague Dawley rats (setting [4]), the “AUC (total insulin secretion)” value came out at 304.92.
On the same counts, the results for “YAEGTFISDY[Ac5c]IAMDKIHQQDFVNWLLAQKGKKNDWKHN[Ac5c]TQ-OH [Example 2, (A5c^11, 40)hGIP(1-42)-OH]” are 2.7 h, 14.1 h and 286.02.
Turning to “YAEGTF[Ac6c]SDYSIAMDKIHQQDFVNWLLAQK[Orn](Myristoyl)KKNDWKHNITQ-OH [Example 19, [A6c^7, Orn^31(N—C(O)—(CH2)12—CH3)]hGIP(1-42)-OH]”, the Ki in data set [3] amounted to 0.018 µM. Further, the half-life at 0.1 mg/ml in data set [1] is 54.6 h; in data set [2], 6.3 h.
